From US8735623B2, “Process for preparing creatine amides” (priority 2009, dated 2014)
Like-named read-outs stand apart in the source and are kept apart here.

How the values were obtained:
[1] = test system: rat model of focal ischemia; conditions: 30 min ischemia, 48 hour reperfusion, male Wistar rat
Description: Research of the neuroprotective action of amides of creatine was carried out in a rat model of focal ischemia (male, Wistar, 12÷14 weeks, 220÷240 g). Anesthesia was performed by sodium thiopental 60 mg/kg. A solution of amides of creatine in saline was administered intravenous to the first group of animals 45 min before ischemia, saline was administered to a control group, a solution of amides of creatine in saline was administered intragastric per os by an enteral tube a day before ischemia to the second group of animals 3 times per day, saline was administered to a control group.
Standard time of ischemia constituted 30 min, standard time of reperfusion constituted 48 hour. The animals were sacrificed, brain slices with thickness of 2 mm were produced for assessing a brain damage volume. The damage area was determined by staining with […] followed by data acquisition and analysis of stained slice digital images. A brain damage coefficient, i.e. a relation of damage area to the slice surface was calculated (Table 1).

[2] = Stability in artificial gastric secretion (HPLC); conditions: 37° C.
Description: 10 mg of amides of creatine was dissolved in 20 mL of artificial gastric secretion for study of amides of creatine stability, solution aliquot was place into vial for chromatograph. Vial with solution was place into chromatograph autosampler at 37° C. Initial concentration of amides of creatine and its relative change in gastric secretion were determined by HPLC at indicated temperature (Table 3).

[3] = 37° C.
Description: Stability of amides of creatine in human plasma was assessed by relative change in concentration of amides of creatine in plasma. 1 mL of plasma was mixed with 0.2 mL of amides of creatine aqueous solution with concentration 5 mg/mL, a mixture was kept at a temperature of 37° C., aliquot of volume 0.2 mL was drawn in fixed time ranges, mixed with 0.02 mL of trifluoroacetic acid 10% solution, a precipitate was centrifuged at […] for 20 min. A concentration of amides of creatine in supernatant was determined by HPLC method (Table 4).

[4] = in vivo; cited from earlier work
[5] = test system: rat model of focal ischemia; conditions: score 18 max, 3 min
Description: Cerebral ischemia was induced by the method mentioned above. A solution of amides of creatine or saline was administered intravenous. […] Testing the animals was carried out before ischemia, on a second and third days after ischemia-reperfusion at a fixed time for exclusion of behavioral changes by means of circadian rhythm. Spontaneous activity, symmetrical limb movement, climbing onto vertical reticulated wall, body proprioreception, touching to vibriss were assessed. A maximum point by assigned score was 18 (lack of neurological deficit), minimum—3 (severe neurological deficit).

[6] = 20-30 g per day for a few days; cited from earlier work
[7] = i./v., 150 mg/kg, 45 min before ischemia
[8] = per os, 3 × 150 mg/kg, a day before ischemia

CC(=O)O.CCOC(=O)CNC(=O)CNC(=O)CN(C)C(=N)N [Agent 2, Creatinyl-Glycyl-Glycine Ethyl Ester Acetate]
Brain damage coefficient ([1]; i./v., 200 mg/kg, 45 min before ischemia): 12.1 ± 2.0%
Stability in gastric secretion ([2]; 0 hour): 100%
Stability in gastric secretion ([2]; 1 hour): 100%
Stability in gastric secretion ([2]; 3 hours): 98%
Stability in gastric secretion ([2]; 5 hours): 98%
Stability in human plasma ([3]; 0 hour): 100%
Stability in human plasma ([3]; 0.25 hour): 100%
Stability in human plasma ([3]; 0.5 hours): 97%
Stability in human plasma ([3]; 1 hour): 90%

CN(CC(=O)O)C(=N)N [creatine, Creatine]
Extent of absorbtion from gastro-intestinal tract [4]: 1 to 14%

CC(=O)O.CC(=O)O.CCOC(=O)[C@@H](N)CCCCNC(=O)CN(C)C(=N)N [Agent 4, N^ε-Creatinyl-Lysine Ethyl Ester Diacetate]
Brain damage coefficient ([1]; i./v., 100 mg/kg, 45 min before ischemia): 13.3 ± 3.2%
Brain damage coefficient ([1]; per os, 3 × 100 mg/kg, a day before ischemia): 15.2 ± 2.9%
Neurological condition by Garcia score, 2nd day after ischemia ([5]; 100 mg/kg intravenous): 14 ± 1
Neurological condition by Garcia score, 3rd day after ischemia ([5]; 100 mg/kg intravenous): 17 ± 2
Neurological condition by Garcia score, 1 day before ischemia ([5]; 100 mg/kg intravenous): 18 ± 0
Stability in gastric secretion ([2]; 0 hour): 100%
Stability in gastric secretion ([2]; 1 hour): 100%
Stability in gastric secretion ([2]; 3 hours): 98%
Stability in gastric secretion ([2]; 5 hours): 97%
Stability in human plasma ([3]; 0 hour): 100%
Stability in human plasma ([3]; 0.25 hour): 100%
Stability in human plasma ([3]; 0.5 hours): 100%
Stability in human plasma ([3]; 1 hour): 89%

CCNC(=O)CNC(=O)CN(C)C(=N)N.O=C(O)C(O)C(O)C(=O)O [Agent 3, Creatinyl-Glycine Ethylamide Tartrate]
Brain damage coefficient [1, 7]: 12.0 ± 1.7%
Brain damage coefficient [1, 8]: 13.9 ± 3.3%
Neurological condition by Garcia score, 2nd day after ischemia ([5]; 150 mg/kg intravenous): 11 ± 2
Neurological condition by Garcia score, 3rd day after ischemia ([5]; 150 mg/kg intravenous): 16 ± 1
Neurological condition by Garcia score, 1 day before ischemia ([5]; 150 mg/kg intravenous): 18 ± 0
Stability in gastric secretion ([2]; 0 hour): 100%
Stability in gastric secretion ([2]; 1 hour): 100%
Stability in gastric secretion ([2]; 3 hours): 97%
Stability in gastric secretion ([2]; 5 hours): 98%
Stability in human plasma ([3]; 0 hour): 100%
Stability in human plasma ([3]; 0.25 hour): 100%
Stability in human plasma ([3]; 0.5 hours): 95%
Stability in human plasma ([3]; 1 hour): 90%

CC(=O)O.CCOC(=O)CCCNC(=O)CN(C)C(=N)N [Agent 6, Creatinyl-γ-Aminobutyric acid Ethyl Ester acetate]
Brain damage coefficient ([1]; i./v., 45 mg/kg, 45 min before ischemia): 13.1 ± 1.0%
Neurological condition by Garcia score, 2nd day after ischemia ([5]; 45 mg/kg intravenous): 14 ± 0
Neurological condition by Garcia score, 3rd day after ischemia ([5]; 45 mg/kg intravenous): 16.0 ± 1.1
Neurological condition by Garcia score, 1 day before ischemia ([5]; 45 mg/kg intravenous): 18 ± 0
Stability in gastric secretion ([2]; 0 hour): 100%
Stability in gastric secretion ([2]; 1 hour): 100%
Stability in gastric secretion ([2]; 3 hours): 99%
Stability in gastric secretion ([2]; 5 hours): 99%

CN(CC(=O)O)C(=N)N.O [creatine monohydrate]
Increasing of total creatine content in human skeletal muscles [6]: more than 20%

CC(=O)O.CC(C)OC(=O)CNC(=O)CN(C)C(=N)N [Agent 1, Creatinyl-Glycine iso-Propyl Ester Acetate]
Brain damage coefficient [1, 7]: 11.2 ± 2.3%
Brain damage coefficient [1, 8]: 14.2 ± 3.0%
Neurological condition by Garcia score, 2nd day after ischemia ([5]; 150 mg/kg intravenous): 10 ± 2
Neurological condition by Garcia score, 3rd day after ischemia ([5]; 150 mg/kg intravenous): 15 ± 2
Neurological condition by Garcia score, 1 day before ischemia ([5]; 150 mg/kg intravenous): 18 ± 0
Stability in gastric secretion ([2]; 0 hour): 100%
Stability in gastric secretion ([2]; 1 hour): 100%
Stability in gastric secretion ([2]; 3 hours): 99%
Stability in gastric secretion ([2]; 5 hours): 97%
Stability in human plasma ([3]; 0 hour): 100%
Stability in human plasma ([3]; 0.25 hour): 100%
Stability in human plasma ([3]; 0.5 hours): 99%
Stability in human plasma ([3]; 1 hour): 91%

CCNC(=O)C(Cc1ccccc1)NC(=O)CN(C)C(=N)N.Cl (stereo not shown) [Agent 5, Creatinyl-Phenylalanine Ethylamide Hydrochloride]
Brain damage coefficient ([1]; i./v., 50 mg/kg, 45 min before ischemia): 14.0 ± 1.1%
Neurological condition by Garcia score, 2nd day after ischemia ([5]; 50 mg/kg intravenous): 11 ± 1
Neurological condition by Garcia score, 3rd day after ischemia ([5]; 50 mg/kg intravenous): 14 ± 1
Neurological condition by Garcia score, 1 day before ischemia ([5]; 50 mg/kg intravenous): 18 ± 0
Stability in gastric secretion ([2]; 0 hour): 100%
Stability in gastric secretion ([2]; 1 hour): 100%
Stability in gastric secretion ([2]; 3 hours): 98%
Stability in gastric secretion ([2]; 5 hours): 99%
Stability in human plasma ([3]; 0 hour): 100%
Stability in human plasma ([3]; 0.25 hour): 100%
Stability in human plasma ([3]; 0.5 hours): 97%
Stability in human plasma ([3]; 1 hour): 87%
